Laboratory results reported in US20220073638A1, “METHODS AND PHARMACEUTICAL COMPOSITION FOR THE TREATMENT OF CANCERS RESISTANT TO IMMUNE CHECKPOINT THERAPY” (INSERM (INSTITUT NATIONAL DE LA SANTÉ ET DE LA RECHERCHE …, priority 2018, published 2022).

Test system: CD163+ TAMs
Format: in vivo, mouse
Procedure: To deplete CD163^+ TAM we generated knock-in mice expressing iCre recombinase from a Cd163-IRES-iCre transcript (CD163-iCre) and crossed them to Csflr-LSL-DTR mice that after cre-mediated deletion of LSL, have DTR expression under the control of the Csflr promotor. A single injection of 4 ng/kg diphteria toxin (DT) specifically depleted close to 50% of CD163+ TAMs after 24 hrs (data not shown). No effect, was observed on the remaining myeloid compartment except for a small increase in recruited monocytes (data not shown). Next, we attempted to achieve sustained depletion of CD163+ TAMs by repeated DT injections.

diphteria toxin [DT]
side effects of sustained depletion of CD163+ macrophages (repeated DT injections): severe side-effect | tumor growth (repeated DT injections, CD163-iCre+/-, Csf1r-LSL-DTR+/- mice compared to Csf1r-LSL-DTR wildtype mice): significantly reduced tumor growth | depletion of CD163+ TAMs (single injection of 4 ng/kg DT, after 24 hrs): ~50% | effect on the remaining myeloid compartment (single injection of 4 ng/kg DT, except for a small increase in recruited monocytes): No effect
